# Results: patent publication EP0437336B1, “Biophosphoryl hydrazines and their use as pesticides” (priority 1990, dated 1991)
# Where two headings read alike, the source gives them in different places.
# What was measured:
# Boll Weevil [1] = experiment: Biological Method D: Foliar Insecticidal Activity Test, boll weevil test; type: in vivo, Anthonomous grandis; design: key: I = inactive at concentration listed
# Procedure: (§1) Biological Method D: Foliar Insecticidal Activity Test
# (§2) In evaluating the foliar insecticidal activity of the compounds of this invention against insects and mites, the following test procedures were employed.
# (§3) Not all compounds were tested at each of the several concentrations stated above. Test concentrations of a compound were selected as those most likely to differentiate dose response of a particular compound toward a particular test insect.
# (§4) Initial evaluations were made on one or more of the following pests:
# (§5) For the boll weevil test, 10 adult weevils were placed in a 0.24 ℓ (0.5 pint) glass Mason jar containing a small cube of apple. The weevils were confined to the jar by fiberglass screen mesh secured by a screw-type rim cap. The jars were then sprayed with the test solution using a rotating turntable; directing the spray through the mesh into the jar. The percentage killed was determined after forty-eight and ninety six hours.
# (§6) The mortalities obtained in this manner were plotted on logarithmic probability paper.
# (§7) The rotating turntable consists of a fixed, continuously operating spray nozzle under which targets are rotated at a fixed speed and distance. If the target is a Petri dish (such as for the bean beetle, armyworm, mite, or aphid tests), the distance from the nozzle is 38.1 cm (15 inches). If the target is a Mason jar (such as for the boll weevil test), the distance from the nozzle is 17.8 cm (7 inches). The nozzle is located 8 inches from the rotating shaft. The targets on individual platforms revolve around the shaft at 1 revolution per 20 seconds but only a brief portion of this time occurs in the spray path. Targets pass only once under the nozzle and then are removed to drying hoods.
# (§8) The nozzle used is a 1/4 JCO Spraying Systems (Wheaton, Illinois) air atomizing nozzle equipped with a No. 2850 fluid cap and a No. 70 air cap. At the 68.95 x 10³ Pa gauge (10 psig) air pressure used and with liquid siphon feed, 1.89 ℓ/hr [0.5 GPH (gallons per hour)] are delivered in a round spray pattern with a 21 degree spray angle. Targets are misted with spray droplets to the point that the droplets coalesce to form a uniform thin film insufficient to drown test organisms.
# [2] = tested on: southern corn rootworm, Diabrotica undecimpunctata howardi; experiment: Biological Method A: Corn Rootworm Screening Test (treated non-aggressive soil); conditions: soil concentration giving 90% mortality, 10 days at 27°C
# Mexican Bean Beetle = experiment: Biological Method D: Foliar Insecticidal Activity Test, Mexican Bean Beetle test; type: in vivo, Epilachna varivestis; conditions: Epilachna varivestis
# Procedure: as §1, §2, §3, §4
# (§9) For the Mexican Bean Beetle and Southern armyworm tests, individual lima bean (Phaseolus limeniss var. Woods' Prolific) leaves were placed on moistened pieces of filter paper in Petri dishes. The leaves were then sprayed with the test solution using a rotating turntable and allowed to dry. The dishes were then infested with 10 third instar larvae of either the Mexican Been Beetle or the Southern Armyworm. The dishes were then covered. Percent mortality was determined for each species and spray concentration at 48 and 96 hours after treatment.
# as §6, §7, §8
# [3] = tested on: southern corn rootworm, Diabrotica undecimpunctata howardi; conditions: for foliar systemic nonagressive Method B crw % control at 0.56 kg/ha (0.5 lb/acre): percent control relative to infested check, from root damage ratings, 14 days post-spraying
# Two-Spotted Spider Mite = experiment: Biological Method D: Foliar Insecticidal Activity Test, mite test; type: in vivo, Tetranychus urticae; design: key to LC50 TSM: I = inactive at concentration listed; conditions: for LC50: Tetranychus urticae
# Procedure: as §1, §2, §3, §4
# For the mite test, infested bean (Phaseolus limensis var. Woods Prolific) leaf discs [3.18 cm (1.25") in diameter] containing about 50 mites were placed in a Petri dish lid on a moistened piece of cotton. The leaves were then sprayed to thorough wetness with the test solution using a rotating turntable, held for twenty-four hours and then the percentage killed was determined.
# as §6, §7, §8
# Green Peach Aphid [4] = experiment: Biological Method D: Foliar Insecticidal Activity Test, aphid test; type: in vivo, Myzus persicae; design: key: I = inactive at concentration listed
# Procedure: as §1, §2, §3, §4
# (§10) For the aphid test, infested broccoli (Brassica oleracea italica var. DiCicco) leaves containing about 50 aphids were placed in a Petri dish lid on a moistened piece of cotton. The leaves were then sprayed to thorough wetness with the test solution using a rotating turntable, held for twenty-four hours and then the percentage killed was determined.
# as §6, §7, §8
# Southern Armyworm [5] = experiment: Biological Method D: Foliar Insecticidal Activity Test, Southern Armyworm test; type: in vivo, Spodoptera eridania; design: key: I = inactive at concentration listed
# Procedure: as §1, §2, §3, §4, §9, §6, §7, §8
# Boll Weevil [6] = experiment: Biological Method D: Foliar Insecticidal Activity Test, boll weevil test; type: in vivo, Anthonomous grandis; conditions: spray into jar
# Procedure: as §1, §2, §3, §4, §5, §6, §7, §8
# [7] = tested on: southern corn rootworm, Diabrotica undecimpunctata howardi; conditions: at-planting soil application
# Southern Armyworm [8] = experiment: Biological Method D: Foliar Insecticidal Activity Test, Southern Armyworm test; type: in vivo, Spodoptera eridania; conditions: foliar spray; for AW 48 hrs LC50: 48 hours after treatment; for AW 96 hrs LC50: 96 hours after treatment
# Procedure: as §1, §2, §3, §4, §9, §6, §7, §8
# Green Peach Aphid [9] = experiment: Biological Method D: Foliar Insecticidal Activity Test, aphid test; type: in vivo, Myzus persicae; conditions: foliar spray; kill after twenty-four hours
# Procedure: as §1, §2, §3, §4, §10, §6, §7, §8
# [10] = Method D foliar test, Mexican Bean Beetle, 48 hrs, read-out: LC50 BB 48 hrs.
# [11] = Method D foliar test, Two-Spotted Spider Mite, read-out: LC50 TSM
# [12] = Method D foliar test, Mexican Bean Beetle, 96 hrs, read-out: LC50 BB 96 hrs
# [13] = Method D foliar test, Two-Spotted Spider Mite
# [14] = foliar spray, 48 hours after treatment, read-out: BB 48 hrs. LC50
# [15] = foliar spray, 96 hours after treatment, read-out: BB 96 hrs LC50
# [16] = 24 h, foliar spray, kill after twenty-four hours, read-out: TSM LC50
# [17] = foliar spray, kill after twenty-four hours
SMILES,LC50 BW 48 hrs (Boll Weevil [1]),LC50 BW 96 hrs (Boll Weevil [1]),primary nonagressive Method A crw LC90 [2] [ppm],foliar systemic nonagressive Method B crw % control at 0.56 kg/ha (0.5 lb/acre) [3] [%],LC50 GPA (Green Peach Aphid [4]),LC50 AW 48 hrs (Southern Armyworm [5]),LC50 AW 96 hrs (Southern Armyworm [5]),LC50 (Mexican Bean Beetle; [14]) [µg/mL],LC50 (Mexican Bean Beetle; [15]) [µg/mL],BW 48 hrs LC50 (Boll Weevil [6]),BW 96 hrs LC50 (Boll Weevil [6]),AW 48 hrs LC50 (Southern Armyworm [8]),AW 96 hrs LC50 (Southern Armyworm [8]),GPA LC50 (Green Peach Aphid [9]),TSM LC50 (Two-Spotted Spider Mite; [17]),also measured
CCOP(=S)(NNP(=S)(OCC)OC(C)C)OCC (stereo not drawn) [Compound 5],I,I,<0.1,69,I,I,I,,,,,,,,,LC50 (Mexican Bean Beetle; [10]): 740 µg/mL; LC50 (Two-Spotted Spider Mite; [11]): 150 µg/mL
CCCOP(=S)(NNP(=S)(OCC)OCC)OCC (stereo not drawn) [Compound 6],I,I,<0.1,3,I,I,I,,,,,,,,,LC50 (Mexican Bean Beetle; [10]): 420 µg/mL; LC50 (Two-Spotted Spider Mite; [11]): 150 µg/mL
CCCCOP(=S)(NNP(=S)(OCC)OCC)OCC (stereo not drawn) [Compound 7],I,I,0.25,38,I,I,I,,,,,,,,,LC50 (Two-Spotted Spider Mite; [11]): 150 µg/mL
C=CCOP(=S)(NNP(=S)(OCC)OCC)OCC (stereo not drawn) [Compound 10],I,I,0.79,34,I,I,I,,,,,,,,,LC50 (Mexican Bean Beetle; [12]): 78 µg/mL; LC50 (Two-Spotted Spider Mite; [11]): 510 µg/mL
C#CCOP(=S)(NNP(=S)(OCC)OCC)OCC (stereo not drawn) [Compound 12],I,I,0.56,30,I,I,I,,,,,,,,,LC50 (Mexican Bean Beetle; [10]): 150 µg/mL; LC50 (Mexican Bean Beetle; [12]): 62 µg/mL; LC50 TSM (Two-Spotted Spider Mite; [13]): I
"CCCOP(=S)(NNP(=S)(OCC)OCC)OCCC [Compound 13, reference compound]",I,I,<0.1,46,I,I,I,,,,,,,,,LC50 (Mexican Bean Beetle; [10]): 150 µg/mL; LC50 (Mexican Bean Beetle; [12]): 52 µg/mL; LC50 TSM (Two-Spotted Spider Mite; [13]): I
CCOP(=S)(NNP(=S)(OCC)OC(C)C(F)(F)F)OCC (stereo not drawn) [Compound 15],I,I,<0.1,,I,I,I,,,,,,,,,"LC50 (Mexican Bean Beetle; [10]): 150 µg/mL; LC50 (Mexican Bean Beetle; [12]): 62 µg/mL; pest or weed control at 560 g/ha ([3]; Diabrotica undecimpunctata, in Zea mays, foliar, 336 h, read-out: foliar systemic nonagressive Method B crw % control at 0.56 kg/ha (0.5 lb/acre)): 54%; LC50 TSM (Two-Spotted Spider Mite; [13]): I"
"CCOP(=S)(NNP(=S)(OCC)OC(C)CC)OC(C)CC (stereo not drawn) [Compound 65, N-(O-ethyl O-secbutylthiophosphoryl) N′-(O-ethyl O-secbutylthiophosphoryl) hydrazine, reference compound]",,,0.09,,,,,360,62,I,I,I,I,I,,LC50 (Two-Spotted Spider Mite; [16]): 245 µg/mL; secondary aggressive Method C crw LC50 ([7]; rated 17 days post-infestation): 0.44 kg/ha; secondary aggressive Method C crw LC50 ([7]; value in brackets): 0.39 lb/acre
"CCOP(=S)(NNP(=S)(OCC)OCC(C)C)OCC(C)C (stereo not drawn) [Compound 66, reference compound]",,,0.09,,,,,,150,I,I,I,I,I,I,secondary aggressive Method C crw LC50 ([7]; rated 17 days post-infestation): ~1.91 kg/ha; secondary aggressive Method C crw LC50 ([7]; value in brackets): ~1.7 lb/acre
CCCCNP(=S)(NNP(=S)(OCC)OCC)OCC (stereo not drawn) [Compound 74],,,1.1,,,,,740,380,I,I,I,I,I,I,secondary aggressive Method C crw LC50 ([7]; rated 17 days post-infestation): 1.03 kg/ha; secondary aggressive Method C crw LC50 ([7]; value in brackets): 0.92 lb/acre
CCOP(=S)(NNP(=S)(OCC)N(C)CC)OCC (stereo not drawn) [Compound 75],,,1.1,,,,,500,150,I,I,I,I,I,,LC50 (Two-Spotted Spider Mite; [16]): 150 µg/mL
CCCN(C)P(=S)(NNP(=S)(OCC)OCC)OCC (stereo not drawn) [Compound 76],,,1.1,,,,,150,62,I,I,I,I,I,,LC50 (Two-Spotted Spider Mite; [16]): 150 µg/mL
CCCCCCOP(=S)(NNP(=S)(OCC)OCC)OCC (stereo not drawn) [Compound 77],,,1.1,,,,,150,150,I,I,I,I,I,I,
CCOP(=S)(NNP(=S)(OCC)OCC(F)(F)C(F)(F)F)OCC (stereo not drawn) [Compound 78],,,1.1,,,,,360,150,I,I,I,I,I,,LC50 (Two-Spotted Spider Mite; [16]): 150 µg/mL
CCCCCOP(=S)(NNP(=S)(OCCC)OCCC)OCC (stereo not drawn) [Compound 79],,,1.1,,,,,380,62,I,I,I,I,I,I,
CCCOP(=S)(NNP(=S)(NCC(C)C)OCC)OCCC (stereo not drawn) [Compound 81],,,1.1,,,,,500,740,I,I,I,I,I,I,
CCCOP(=S)(NNP(=S)(OCC)OC(C)C)OCCC (stereo not drawn) [Compound 82],,,0.7,,,,,500,150,,,I,,I,I,secondary aggressive Method C crw LC50 ([7]; rated 17 days post-infestation): 0.95 kg/ha; secondary aggressive Method C crw LC50 ([7]; value in brackets): 0.85 lb/acre
